# Measured values: patent US20040019066A1, “Methionine salvage pathway in bacillus” (priority 2002, published 2004)
# What was measured:
# B. subtilis [1] = experiment: Growth in the presence of trifluoromethylthioribose (3F-MTR), resistance phenotype; assay type: cell-based, Bacillus subtilis; details: inactivation of mtnK, mtnS, mtnY and mtnW
# Description: Mutants were obtained by transformation of a wild type strain with a random transposon library, selecting for growth in the presence of trifluoromethylthioribose (3F-MTR). The mutants were subsequently tested for growth on plates lacking sulfur source but supplemented with MTR: only those that could not grow were retained for further study. In order to ascertain that the resistant phenotype was not coming from secondary mutations but was directly related to the transposon insert, the chromosome DNA was extracted from each putative mutant and back transformed into a wild type strain selecting for the transposon antibiotic marker. The 3F-MTR and MTR phenotypes were subsequently tested and only those mutants that passed the test were retained. The insertion positions of the transposons were then sequenced. […]
# (§1) Bacterial strains and plasmids, and growth media: E. coli and B. subtilis strains as well as plasmids used in this work are listed in Table 3. […] In the latter case, 10 [μl of the sulfur source under investigation was applicated onto paper discs (MTR, 200 mM stock solution and methionine, 100 mM stock solution) deposited at the center of the plate, after bacteria had been uniformly spread at the surface of the plate, and growth was measured around the disK. […] The optical density (OD) of bacterial cultures was measured at 600 nm. […]
# B. subtilis [2] = details: if the methyl sulfur moiety of the molecule is recycled; reference [13]; cited from earlier work
# [3] = system: Strain BSHP7014 (mtnW:lacZ amyE::pxyl mtnXYZ); experiment: Toxicity of MTR for BSHP7014 strain (paper disc on ED1 minimal medium plates); assay type: cell-based, Bacillus subtilis; details: inferred from MTR toxicity in mtnU or mtnW mutants with functional mtnY
# Procedure: Toxicity of MTR for BSHP7014 strain. Strain BSHP7014 (mtnW:lacZ amyE::pxyl mtnXYZ) was grown on ED1 minimal medium plates in the presence of sulfate as sulfur source (panel A) or in the absence of any added sulfur source (agar as sole sulfur source, panel B). Xylose was added to the medium in order to trigger the expression of mtnXYZ from the pxyl promoter, 10 μl of methionine (met) or MTR was adsorbed on paper discs and plates were incubated over-night at 37° C. Methionine was used as a control for growth and/or toxicity of the sulfur source.
# Two genes in the pathway are dispensable, mtnV and mtnX. The first one encodes a transaminase of which there are nine putative paralogs in the genome of B. subtilis (YwfG, AlaT, AspB, PatA, YhdR, YdfD, PatB, YisV, and HisC). In the same way, MtnX (YkrX) is a member of the phosphatase family pfam00702 ([12], FIG. 6), and therefore of a ubiquitous class of hydrolases (several phosphatase genes, in particular are present in the genome of B. subtilis). This is likely to account for the lack of phenotype under our growth conditions. […] In contrast, we discovered that MTR is toxic when the distal genes are present (when used as sole sulfur source or in the presence of sulfate, see FIG. 7). Because of the weak phenotype of a mtnZ mutant and the absence of phenotype of a mtnX mutant, we can be confident that MtnY acts before MtnW (this is a common feature in operons, where it is generally observed that the more distal genes code for proteins acting in the more proximate steps of the pathway).
# as §1, with “3. E. coli TG1 and XL1-Blue were used for cloning experiments (TG1 for single cross-over recombination and XL1-Blue for double cross-over recombination). Despite the fact that there are no public regulations yet in this domain in China, all experiments were performed in accordance with the European regulation requirements concerning the contained use of Genetically Modified Organisms of Group-I (French agreement N^o 2735).” for “3.”
structure (smiles),measurement,setting,value
"O=C[C@H](O)[C@H](O)[C@H](O)CSC(F)(F)F [3F-MTR, 5-thio-5-5-S-trifluoromethyl-D-ribose]",Phenotype towards 3F-MTR,B. subtilis [1],resistance
same,Toxicity of the MTR analog,B. subtilis [2],toxic
CSCC(O)C(O)C(=O)COP(=O)(O)O (stereo not drawn) [5-thiomethylribulose-1-phosphate],Toxicity to the cells,[3],toxic
